Test results taken from the supplement of paper PMC10307832.

Legend:
Test in all cases: relative viability (nuclei count vs DMSO), 5 days (fraction); higher = more cells survive
[1] = compound: C1COCCN1C2=NC(=NC3=C2OC4=C3C=CC=N4)C5=CC(=CC=C5)NC(=O)C6=CN=C(C=C6)N + CC(C)C[C@H](NC(=O)[C@H](Cc1ccccc1)NC(=O)c1cnccn1)B(O)O [Bortezomib] (partner 0.002 µM)
Procedure, shortened: (§1)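 Each reported value is a median over duplicate plates. It expresses relative viability: treated-well nuclei count divided by vehicle-well nuclei count. Lung cancer cell lines in 1536-well plates were dosed by pin tool a day after seeding, alone with one drug or with a fixed anchor-drug dose plus five library-drug doses (not always all listed) in √10 steps, and nuclei were counted after 5 days.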

[2] = compound: Nc1ccccc1NC(=O)c1ccc(CNC(=O)OCc2cccnc2)cc1 [Entinostat] + Nc1nc2[nH]cc(CCc3ccc(C(=O)N[C@@H](CCC(=O)O)C(=O)O)cc3)c2c(=O)[nH]1 [Pemetrexed] (partner 0.2 µM)
Procedure, shortened: as §1

[3] = compound: C1COCCN1C2=NC(=NC3=C2OC4=C3C=CC=N4)C5=CC(=CC=C5)NC(=O)C6=CN=C(C=C6)N + C[C@]1(O)C[C@@H](c2nc(-c3ccc4ccc(-c5ccccc5)nc4c3)c3c(N)nccn32)C1 [Linsitinib] (partner 1 µM)
Procedure, shortened: as §1

[4] = compound: CN1CCC(CNc2ccc3ncc(-c4cccc(OC(F)(F)F)c4)n3n2)CC1 [SGI-1776] + CC(=O)c1c(C)c2cnc(Nc3ccc(N4CCNCC4)cn3)nc2n(C2CCCC2)c1=O [Palbociclib] (partner 0.5 µM)
Procedure, shortened: as §1

Cell Line	relative viability ([1]; first compound 0.02 µM)	relative viability ([1]; first compound 0.06325 µM)	relative viability ([1]; first compound 0.2 µM)	relative viability ([1]; first compound 0.6325 µM)	relative viability ([1]; first compound 2 µM)	relative viability ([2]; first compound 0.02 µM)	relative viability ([2]; first compound 0.06325 µM)	relative viability ([2]; first compound 0.2 µM)	relative viability ([2]; first compound 0.6325 µM)	relative viability ([2]; first compound 2 µM)	relative viability ([3]; first compound 0.02 µM)	relative viability ([3]; first compound 0.06325 µM)	relative viability ([3]; first compound 0.2 µM)	relative viability ([3]; first compound 0.6325 µM)	relative viability ([3]; first compound 2 µM)	relative viability ([4]; first compound 0.08 µM)	relative viability ([4]; first compound 0.8 µM)	relative viability ([4]; first compound 2.53 µM)	relative viability ([4]; first compound 8 µM)
NCI-H2405	0.995	1.02	0.973	0.947	0.902	1.06	1.22	1.02	0.978	0.667	0.828	0.946	0.97	0.905	0.795	0.553	0.516	0.484	0.44
201T	0.994	1.1	1.02	1.11	0.97	0.37	0.33	0.379	0.287	0.279	1	1.01	1.05	0.981	0.97	0.36	0.346	0.342	0.327
PC-3 [JPC-3]	0.799	0.748	0.844	0.845	0.634	1.36	1.05	0.924	0.686	0.461	0.994	0.969	0.969	0.918	0.908	0.518	0.534	0.533	0.49
NCI-H1734	1.15	1.02	0.835	0.801	0.462	0.436	0.419	0.492	0.414	0.382	0.865	0.938	0.86	0.84	0.467	0.387	0.339	0.345	0.283
NCI-H1651	1.03	0.998	0.946	0.921	0.743	0.715	0.777	0.655	0.639	0.435	0.996	0.917	0.957	1.09	0.357	0.504	0.497	0.522	0.439
NCI-H838	0.708	0.872	0.564	0.659	0.469	0.231	0.222	0.268	0.247	0.183	0.977	1.08	0.933	0.78	0.371	0.228	0.222	0.204	0.155
NCI-H1915	1.07	1.08	1.03	1.02	0.423	0.417	0.536	0.475	0.403	0.188	1.08	1.14	1.13	1.11	1.08	0.534	0.541	0.554	0.509
COR-L23	1.13	1.18	1.08	1.13	0.474	0.21	0.184	0.197	0.179	0.167	1.16	0.978	0.933	1.04	0.543	0.282	0.309	0.32	0.247
HOP-62	0.743	0.848	0.897	0.967	0.291	0.23	0.301	0.286	0.229	0.188	0.675	0.967	0.825	0.934	0.773	0.548	0.428	0.423	0.379
NCI-H1975	0.352	0.419	0.397	0.359	0.299	0.283	0.306	0.27	0.219	0.185	0.882	0.983	0.897	0.905	0.476	0.684	0.563	0.568	0.526
BEN	0.961	0.738	0.764	0.761	0.711	0.88	1.02	0.891	0.564	0.413	0.953	0.94	1.05	0.941	0.569	0.447	0.476	0.457	0.47
EMC-BAC-2	1.1	1.14	1.06	1	0.784	0.434	0.432	0.416	0.361	0.341	0.815	0.83	0.749	0.762	0.491	0.537	0.52	0.518	0.514
NCI-H650	0.773	0.906	0.75	0.909	0.529	0.952	0.951	0.833	0.794	0.353	0.876	0.876	0.857	0.837	0.659	0.39	0.349	0.312	0.33
LU99A	1.12	1.17	1.07	0.748	0.497	0.188	0.181	0.184	0.175	0.179	0.517	0.583	0.435	0.353	0.236	0.415	0.441	0.407	0.381
NCI-H2347	1.2	0.922	1.01	0.784	0.73	0.442	0.447	0.339	0.369	0.341	0.917	0.966	0.979	0.98	0.877	0.414	0.455	0.44	0.426
NCI-H2009	0.977	1.11	0.969	0.977	0.727	0.949	0.965	0.963	0.84	0.619	1.29	1.2	1.17	1.17	0.871	0.251	0.151	0.166	0.174
HCC-827	1.07	1.07	1.17	1.15	1.08	0.268	0.265	0.227	0.229	0.187	0.924	0.929	0.968	1.01	0.988	0.504	0.513	0.509	0.383

Cell Line	relative viability ([1]; first compound 0.02 µM)	relative viability ([1]; first compound 0.06325 µM)	relative viability ([1]; first compound 0.2 µM)	relative viability ([1]; first compound 0.6325 µM)	relative viability ([1]; first compound 2 µM)	relative viability ([2]; first compound 0.02 µM)	relative viability ([2]; first compound 0.06325 µM)	relative viability ([2]; first compound 0.2 µM)	relative viability ([2]; first compound 0.6325 µM)	relative viability ([2]; first compound 2 µM)	relative viability ([3]; first compound 0.02 µM)	relative viability ([3]; first compound 0.06325 µM)	relative viability ([3]; first compound 0.2 µM)	relative viability ([3]; first compound 0.6325 µM)	relative viability ([3]; first compound 2 µM)	relative viability ([4]; first compound 0.08 µM)	relative viability ([4]; first compound 0.8 µM)	relative viability ([4]; first compound 2.53 µM)	relative viability ([4]; first compound 8 µM)
NCI-H661	0.772	0.747	0.741	0.657	0.63	0.886	0.916	0.814	0.663	0.354	0.533	0.645	0.645	0.421	0.386	0.415	0.399	0.412	0.338
CAL-12T	0.935	0.98	0.861	0.871	0.84	1.17	1.09	1.49	1.21	0.676	0.622	0.813	0.886	0.782	0.584	0.425	0.518	0.641	0.418
PC-14	0.877	1.04	0.835	0.822	0.375	0.137	0.163	0.139	0.198	0.146	0.991	0.999	0.953	0.86	0.502	0.573	0.448	0.436	0.0558
NCI-H23	1.15	1.44	1.15	0.899	0.446	0.76	0.892	0.728	0.685	0.319	0.6	0.576	0.499	0.534	0.497	0.507	0.574	0.421	0.482
SK-LU-1	1.31	0.998	1.02	1.14	0.63	1	0.921	0.988	0.879	0.485	1.23	1.13	1.02	1.18	0.574	0.425	0.306	0.415	0.371
HCC-366	1.43	1.23	1.09	1.11	0.525	0.185	0.141	0.159	0.0978	0.0735	0.918	0.82	0.574	0.472	0.207	0.395	0.476	0.368	0.33
SW 1573	1.16	0.904	1.01	0.888	0.474	0.806	0.88	1.08	0.966	0.452	0.75	0.743	0.824	0.756	0.544	0.441	0.351	0.363	0.245
HCC-44	0.933	1	0.849	0.943	0.726	0.63	0.604	0.631	0.562	0.564	0.616	0.846	0.711	0.606	0.331	0.976	0.995	0.953	0.919
A-427	0.981	1.02	0.945	0.91	0.652	1.03	0.971	0.922	0.904	0.765	1.08	1.14	1.08	0.901	0.673	0.567	0.541	0.547	0.456
NCI-H441	0.342	0.638	0.565	0.648	0.274	0.287	0.29	0.255	0.227	0.166	0.522	0.609	0.569	0.534	0.357	0.204	0.219	0.235	0.164
NCI-H2085	1.02	1.1	1.05	0.943	0.769	0.826	0.918	0.869	0.712	0.532	0.839	1.02	0.885	0.82	0.456	0.491	0.482	0.468	0.444
NCI-H647	1.02	1.47	0.983	0.862	0.402	0.192	0.184	0.161	0.0878	0.0714	1.11	1.27	1.19	0.901	0.588	0.506	0.367	0.319	0.258
LC-2-ad	1.09	1.05	0.998	1.03	0.898	0.286	0.276	0.28	0.302	0.33	0.836	0.866	0.837	0.826	0.589	0.495	0.535	0.457	0.467
NCI-H3122	0.985	1.01	1.03	1.05	0.931	0.186	0.208	0.2	0.171	0.185	0.93	1.11	0.976	0.988	0.821	0.206	0.2	0.173	0.165
LCLC-97TM1	0.704	0.635	0.499	0.802	0.233	0.149	0.169	0.148	0.196	0.168	–	0.199	0.174	0.232	0.22	0.252	0.231	0.198	0.228
NCI-H520	0.637	0.641	0.465	0.529	0.298	0.644	0.712	0.875	0.689	0.418	1.09	1.08	1.07	1.08	0.373	0.267	0.219	0.191	0.16
